This note sets out measurements from EP1208096B1, “SUBSTITUTED PYRIDAZINES AND FUSED PYRIDAZINES WITH ANGIOGENESIS INHIBITING ACTIVITY” (Bayer Corporation, priority 1999, dated 2001).

Assay [1] concerns the target T1, NIH3T3 cells expressing the full length KDR receptor (Homo sapiens, UniProt P35968).
T1 construct: NIH3T3 cells expressing the full length KDR receptor; expressed in transfected cells; host or cells: NIH3T3 cells (G418 selection)
The assay is described as follows: Cell mechanistic assay - Inhibition of 3T3 KDR phosphorylation. In kind it is cell-based. The conditions noted are these: VEGF (30 ng / ml) for 10 minutes after 30 minutes with compound; KDR phosphotyrosine ELISA. The method, then: NIH3T3 cells expressing the full length KDR receptor were grown in DMEM (Life Technologies, Inc., Grand Island, NY) supplemented with 10% newborn calf serum, low glucose, 25 mM /L sodium pyruvate, pyridoxine hydrochloride and 0.2 mg/ ml of G418 (Life Technologies Inc., Grand Island, NY). The cells were maintained in collagen I-coated T75 flasks (Becton Dickinson Labware, Bedford, MA) in a humidified 5% CO2 atmosphere at 37°C.
Fifteen thousand cells were plated into each well of a collagen I-coated 96-well plate in the DMEM growth medium. Six hours later, the cells were washed and the medium was replaced with DMEM without serum. After overnight culture to quiesce the cells, the medium was replaced by Dulbecco's phosphate-buffered saline (Life Technologies Inc., Grand Island, NY) with 0.1% bovine albumin (Sigma Chemical Co., St Louis, MO). After adding various concentrations (0-300 nM) of test compounds to the cells in 1% final concentration of DMSO, the cells were incubated at room temperature for 30 minutes. The cells were then treated with VEGF (30 ng / ml) for 10 minutes at room temperature. Following VEGF stimulation, the buffer was removed and the cells were lysed by addition of 150 µl of extraction buffer (50 mM Tris, pH 7.8, supplemented with 10% glycerol, 50 mM BGP, 2 mM EDTA, 10 mM NaF, 0.5 mM NaVO4, and 0.3% TX-100) at 4°C for 30 minutes.
To assess receptor phosphorylation, 100 microliters of each cell lysate was added to the wells of an ELISA plate precoated with 300 ng of antibody C20 (Santa Cruz Biotechnology, Inc., Santa Cruz , CA). Following a 60-minute incubation, the plate was washed and bound KDR was probed for phosphotyrosine using an anti-phosphotyrosine mAb clone 4G10 (Upstate Biotechnology, Lake Placid, NY). The plate was washed and wells were incubated with anti-mouse IgG/HRP conjugate (Amersham International plc, Buckinghamshire, England) for 60 minutes. Wells were washed and phosphotyrosine was quantitated by addtion of 100 µl per well of 3,3',5,5' tetramethylbenzidine (Kirkegaard and Perry, TMB Microwell 1 Component peroxidase substrate) solution. Color development was arrested by the addition of 100 µl 1% HCl based stop solution (Kirkegaard and Perry, TMB 1 Component Stop Solution).
Optical densities (OD) were determined spectrophotometrically at 450 nm in a 96-well plate reader (SpectraMax 250, Molecular Devices). Background (no VEGF added) OD values were subtracted from all ODs and percent inhibition was calculated according to the equation: % Inhibition =((OD(VEGF control) - OD(with test compound)) X 100)/(OD(VEGF control) - OD(no VEGF added)) [formula]
IC50s were determined with a least squares analysis program using compound concentration versus percent inhibition. Compounds that have IC50 < 20 nM in this assay include those of Examples 2, 6, 7, 11, 15 and 16. Compounds that have IC50 values between 20 nM and 50 nM include those of examples 1, 4, 5, 8, 10, 12, 13 and 14. Those that have measured IC50 values > 50 nM include those of examples 9 and 21.
For orientation: ELISA stands for enzyme-linked immunosorbent assay.

Assay [2] concerns SK-MEL2 human tumor cells that were transfected with a plasmid containing the murine VEGF gene. The experiment in a line: Matrigel Angiogenesis Model (hemoglobin content of Matrigel plugs). The conditions noted are these: 30, 100 and 300 mg/kg po sid; 12 days post-implantation; vs. vehicle control animals. Format: in vivo, Mice. On the procedure:
Preparation of Matrigel Plugs and in vivo Phase: Matrigel® (Collaborative Biomedical Products, Bedford, MA) is a basement membrane extract from a murine tumor composed primarily of laminin, collagen IV and heparan sulfate proteoglycan. It is provided as a sterile liquid at 4° C, but rapidly forms a solid gel at 37° C.
Liquid Matrigel at 4° C was mixed with SK-MEL2 human tumor cells that were transfected with a plasmid containing the murine VEGF gene with a selectable marker. Tumor cells were grown in vitro under selection and cells were mixed with cold liquid Matrigel at a ratio of 2 X 10^6 per 0.5 ml. […]
Optical densities were determined spectrophotometrically at 600 nm in a 96-well plate reader, SpectraMax 250 Microplate Spectrophotometer System (Molecular Devices, Sunnyvale, CA). Background Lysis Buffer readings were subtracted from all wells.
Total sample hemoglobin content was calculated according to the following equation: Total Hemoglobin = (Sample Lysate Volume) x (Hemoglobin Concentration) [formula]
The average Total Hemoglobin of Matrigel samples without cells was subtracted from each Total Hemoglobin Matrigel sample with cells. Percent inhibition was calculated according to the following equation: % Inhibition =((Average Total Hemoglobin Drug-Treated Tumor Lysates) X 100)/((Average Total Hemoglobin Non-Treated Tumor Lysates)) [formula]

T1 sequence (P35968 20-1356): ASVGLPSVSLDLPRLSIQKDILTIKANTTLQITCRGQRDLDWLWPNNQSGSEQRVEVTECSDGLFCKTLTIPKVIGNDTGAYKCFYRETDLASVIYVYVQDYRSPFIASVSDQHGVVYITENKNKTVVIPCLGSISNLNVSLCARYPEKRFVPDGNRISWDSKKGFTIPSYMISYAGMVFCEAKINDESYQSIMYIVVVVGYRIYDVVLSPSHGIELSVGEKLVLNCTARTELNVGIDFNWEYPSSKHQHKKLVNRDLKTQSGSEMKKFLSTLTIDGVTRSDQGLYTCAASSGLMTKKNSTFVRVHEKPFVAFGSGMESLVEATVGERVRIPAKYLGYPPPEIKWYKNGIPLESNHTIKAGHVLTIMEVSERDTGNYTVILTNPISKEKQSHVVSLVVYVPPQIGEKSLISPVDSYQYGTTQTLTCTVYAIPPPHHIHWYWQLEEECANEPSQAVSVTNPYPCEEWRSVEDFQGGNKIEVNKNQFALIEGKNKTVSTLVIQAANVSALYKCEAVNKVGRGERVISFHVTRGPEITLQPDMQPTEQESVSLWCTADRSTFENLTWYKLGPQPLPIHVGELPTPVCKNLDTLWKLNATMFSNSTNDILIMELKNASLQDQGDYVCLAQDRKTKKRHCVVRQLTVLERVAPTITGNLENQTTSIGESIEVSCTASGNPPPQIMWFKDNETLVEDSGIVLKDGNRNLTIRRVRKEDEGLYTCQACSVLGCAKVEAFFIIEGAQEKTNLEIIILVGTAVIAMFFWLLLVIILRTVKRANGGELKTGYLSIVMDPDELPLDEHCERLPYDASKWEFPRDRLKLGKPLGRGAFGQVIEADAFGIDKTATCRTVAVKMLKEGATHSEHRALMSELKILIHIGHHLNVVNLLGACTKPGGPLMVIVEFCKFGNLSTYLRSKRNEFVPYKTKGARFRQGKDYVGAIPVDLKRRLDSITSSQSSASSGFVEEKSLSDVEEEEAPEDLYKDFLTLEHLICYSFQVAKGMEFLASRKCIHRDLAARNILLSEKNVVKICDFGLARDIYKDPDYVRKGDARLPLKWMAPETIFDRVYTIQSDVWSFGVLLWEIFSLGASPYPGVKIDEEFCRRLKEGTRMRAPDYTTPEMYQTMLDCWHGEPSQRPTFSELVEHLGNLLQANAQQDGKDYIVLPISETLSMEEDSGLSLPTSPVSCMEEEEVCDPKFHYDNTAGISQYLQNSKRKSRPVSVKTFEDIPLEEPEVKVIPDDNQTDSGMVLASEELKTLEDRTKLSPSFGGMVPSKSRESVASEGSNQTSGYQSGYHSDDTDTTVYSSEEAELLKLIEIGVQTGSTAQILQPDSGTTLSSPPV

Consider `NC(=O)c1cc(Cc2nnc(Nc3ccc(Cl)cc3)c3ccccc23)ccn1` [Example 2, 4-[4-(4-Chlorophenylamino)phthalazin-1-ylmethyl]pyridin-2-yl carboxylic acid amide], for which, in assay [1], the IC50 – broadly, the concentration needed to halve the response being measured – is under 0.02 µM. For the same molecule, in assay [2], the “inhibition of total hemoglobin content of the Matrigel samples” value is recorded as over 50%.
